Results on 13 compounds are retold here after ChEMBL document CHEMBL1201862, “PubChem BioAssay data set” (2004).

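1) Cells in 96-well plates. 2) Compound, 48 h, 5 concentrations. 3) Linear interpolation between surrounding doses. 4) Unreached endpoint = highest concentration. The concentration for 50% growth inhibition is given as GI50.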 Calls of active or inactive are those of the source. Rule as the data show it: active = GI50 up to about 1.1 µM and inactive = higher. Starred links: 1 amine or outer side, 2 acyl side, 3 side chain; linkers in the order of their positions; H or OH if unused. Positions of bridges follow the written chain, without caps; N, C: chain ends. Non-standard residues stand in square brackets, D forms with d. Residues, ends and D or L forms follow the SMILES beside them. *: point of attachment. X40 = CC[C@H](C)[C@@H](N[*:1])[C@@H](O)CC(=O)[*:2]; NMeY = CN[C@@H](Cc1ccc(O)cc1)C(=O)O; dNMeL = CN[C@H](CC(C)C)C(=O)O; Hiv = CC(C)[C@H](O)C(=O)O; Pyruvoyl = CC(=O)C(=O)*

Test systems include KM12; RXF 393; NCI-H23; A498; NCI-H460; U-251; SNB-19; TK-10; OVCAR-3; LXFL 529; SK-OV-3; HCT-116; HOP-62; SNB-75; Malme-3M; DU-145; BT-549; T47D; Hs-578T; MDA-N.
Experiment in all cases: inhibition of tumour cell growth, NCI panel, 48 h

For the compound `O=C1C=CC(=O)c2cc(Sc3ccccc3)c(=O)c(Sc3ccccc3)cc21`, the GI50 with KM12 was > 100 µM (inactive); with RXF 393 it was 14 µM (inactive); in the assay on NCI-H23 it was 47.2 µM (inactive); in the assay on A498, > 100 µM (inactive); in the assay on NCI-H460, > 100 µM (inactive); with U-251 it was 46.3 µM (inactive). Also, the GI50 in the assay on SNB-19 was > 100 µM (inactive); with TK-10, 64.3 µM (inactive); with OVCAR-3, 50.9 µM (inactive); in the assay on LXFL 529, 26.1 µM (inactive); in the assay on SK-OV-3 it was 43.2 µM (inactive); with HCT-116, 32.6 µM (inactive). The GI50 with HOP-62 was > 100 µM (inactive); in the assay on SNB-75, 85.3 µM (inactive).
For the compound `CCCCCC/C(CC(=O)CCC(=O)NCCc1ccccc1)=N\Nc1ccc([N+](=O)[O-])cc1[N+](=O)[O-]`, the GI50 with KM12 is 67.8 µM (inactive); in the assay with RXF 393 it was > 100 µM (inactive); in the assay on NCI-H23 it was 45 µM (inactive); in the assay on A498 it was 79.8 µM (inactive); in the assay with NCI-H460 it was > 100 µM (inactive); in the assay with U-251 it was 97.1 µM (inactive). For the same compound, the GI50 in the assay on SNB-19 was > 100 µM (inactive); in the assay on TK-10 it was > 100 µM (inactive); in the assay with OVCAR-3, 51.3 µM (inactive); in the assay on LXFL 529, 49.3 µM (inactive); with Malme-3M, > 100 µM (inactive); in the assay with SK-OV-3, > 100 µM (inactive). Also, the results for the GI50 in the assay with HCT-116 and in the assay with HOP-62 were 36.7 µM (inactive) and > 100 µM (inactive), respectively.
On to `C=CCC1(CC)C(=O)NC(=O)NC1=O` [ETALLOBARBITAL], for which the GI50 with KM12, with RXF 393, in the assay with NCI-H23, in the assay on NCI-H460, with U-251 and with SNB-19 was > 100 µM (inactive) throughout. The GI50 with TK-10, with OVCAR-3, in the assay on LXFL 529, with Malme-3M, in the assay with SK-OV-3 and with HCT-116 was > 100 µM (inactive) throughout. Moreover, the GI50 in the assay on HOP-62 and in the assay with SNB-75 was > 100 µM (inactive) throughout.
As to `CCCCC1(C)C=C/C(=C2/C(=O)O/C(=C\C(=O)O)C2=O)O1` (configuration not stated), the GI50 in the assay with KM12, with NCI-H23, with A498, with NCI-H460, in the assay on U-251 and in the assay with SNB-19 was > 100 µM (inactive) in each case. For the same compound, the GI50 in the assay with TK-10, with OVCAR-3, in the assay on LXFL 529, in the assay on Malme-3M, with SK-OV-3 and in the assay on HCT-116 was > 100 µM (inactive) in each case. Moreover, the GI50 in the assay on HOP-62 and with SNB-75 was > 100 µM (inactive) in each case.
Take `CCOC(=O)/C(C#N)=C\C=C1/C=CN=C2NCCN21`: the GI50 was > 100 µM (inactive) in the assay on KM12; 99.5 µM (inactive) in the assay with RXF 393; > 100 µM (inactive) in the assay with NCI-H23; > 100 µM (inactive) in the assay on NCI-H460; > 100 µM (inactive) with U-251; > 100 µM (inactive) in the assay on SNB-19. Besides, the GI50 in the assay with TK-10, in the assay with OVCAR-3, with LXFL 529, in the assay on Malme-3M, in the assay with SK-OV-3 and in the assay on HCT-116 was > 100 µM (inactive) each time. Further, the GI50 with HOP-62 was > 100 µM (inactive); in the assay with SNB-75 it was 14.4 µM (inactive).
Consider `CCOc1ccc(/N=N/c2ccc3oc(=O)c(/C(C)=N/NC(=O)CC(=O)Nc4cccc(OC)c4)cc3c2)cc1`, for which the GI50 was 20.8 µM (inactive) in the assay on KM12; 17.3 µM (inactive) in the assay on RXF 393; 17.5 µM (inactive) in the assay on NCI-H23; 20 µM (inactive) in the assay with NCI-H460; 10.6 µM (inactive) with U-251; 12.2 µM (inactive) with SNB-19. Also, the GI50 is 28.3 µM (inactive) in the assay with TK-10; 13.4 µM (inactive) in the assay with OVCAR-3; 11 µM (inactive) in the assay on LXFL 529; 16.8 µM (inactive) in the assay with Malme-3M; 38.8 µM (inactive) in the assay on SK-OV-3; 10.2 µM (inactive) in the assay with HCT-116. The GI50 with HOP-62 was 17.9 µM (inactive).
With `CCOP(=O)(Cc1ccc(CP(=O)(OCC)OCC)n1C)OCC`, the GI50 with KM12, with RXF 393, with NCI-H23, with NCI-H460, in the assay on U-251 and with SNB-19 was > 100 µM (inactive) in each case. Moreover, the GI50 in the assay with TK-10, in the assay on OVCAR-3, with LXFL 529, in the assay with Malme-3M, in the assay on SK-OV-3 and with HOP-62 was > 100 µM (inactive) in each case. Also, the GI50 with SNB-75 was > 100 µM (inactive).
Regarding `CN(C)c1ccc(-c2cc(O)c3cc4c(cc3n2)OCO4)cc1`, the GI50 with RXF 393, in the assay with NCI-H23, in the assay with A498, with NCI-H460, in the assay with U-251 and in the assay on SNB-19 was > 100 µM (inactive) each time. Moreover, the GI50 in the assay on TK-10 is > 100 µM (inactive); with OVCAR-3, > 100 µM (inactive); in the assay on LXFL 529 it was > 100 µM (inactive); in the assay on Malme-3M it was > 100 µM (inactive); in the assay on HCT-116, > 100 µM (inactive); in the assay with HOP-62 it was 73.5 µM (inactive). For the same compound, in the assay with SNB-75, the GI50 is 4.33 µM (inactive).
Consider `COc1ccc(C[C@@H]2Cc3cc(OC)c(OC)cc3CN2C)cc1`, for which the GI50 with KM12, in the assay on NCI-H23, in the assay with A498, in the assay with NCI-H460, in the assay on U-251 and in the assay on SNB-19 was > 100 µM (inactive) in each case. The GI50 with TK-10, with OVCAR-3, with LXFL 529, in the assay with Malme-3M, in the assay with HOP-62 and in the assay on SNB-75 was > 100 µM (inactive) each time.
`COc1cc2ccn3c4cc(OC)c(OC)cc4cc3c2cc1OC`: the GI50 in the assay with KM12, in the assay on NCI-H23, in the assay on A498, in the assay with NCI-H460, in the assay with U-251 and in the assay with SNB-19 was > 100 µM (inactive) each time. Further, the GI50 is > 100 µM (inactive) in the assay with TK-10; 58.6 µM (inactive) with OVCAR-3; 78.7 µM (inactive) in the assay on LXFL 529; > 100 µM (inactive) in the assay on Malme-3M; > 100 µM (inactive) in the assay on SK-OV-3; 32.8 µM (inactive) in the assay on HCT-116. The GI50 with HOP-62 and in the assay on SNB-75 was > 100 µM (inactive) in each case.
On to `COc1c(C(=O)c2ccc([N+](=O)[O-])cc2)cc(C(C)(C)C)cc1C(C)(C)C`, for which the GI50 is 16.9 µM (inactive) with KM12; 17.1 µM (inactive) in the assay with RXF 393; 34.7 µM (inactive) in the assay with NCI-H23; 55.8 µM (inactive) with A498; 32.4 µM (inactive) with NCI-H460; 19.1 µM (inactive) in the assay on U-251. Further, the GI50 in the assay on SNB-19 was 48.5 µM (inactive); in the assay with TK-10, 13.8 µM (inactive); in the assay on LXFL 529, 31.6 µM (inactive); in the assay with Malme-3M, 26.5 µM (inactive); with SK-OV-3, > 100 µM (inactive); with HCT-116, 18.8 µM (inactive). In addition, the GI50 in the assay on HOP-62 is 49.5 µM (inactive); with SNB-75, 74.5 µM (inactive).
`CC[C@H](C)[C@H]1NC(=O)[C@@H](NC(=O)[C@@H](CC(C)C)N(C)C(=O)[C@@H]2CCCN2C(=O)C(C)=O)[C@@H](C)OC(=O)[C@H](Cc2ccc(OC)cc2)N(C)C(=O)[C@@H]2CCCN2C(=O)[C@H](CC(C)C)NC(=O)[C@H](C(C)C)OC(=O)C[C@@H]1O` (Pyruvoyl-P[dNMeL]T[X40][Hiv]LP[NMeY](Me); ester 3-C): the GI50 in the assay on KM12 was 0.00148 µM (active); in the assay on RXF 393, 0.00383 µM (active); in the assay on DU-145, 0.00372 µM (active); in the assay on NCI-H23, 0.00455 µM (active); in the assay with A498 it was 0.00538 µM (active); with NCI-H460 it was 0.00429 µM (active). Further, the GI50 in the assay on BT-549 is 0.00617 µM (active); in the assay on T47D, 0.00404 µM (active); in the assay on Hs-578T, 0.00476 µM (active); in the assay with U-251 it was 0.00239 µM (active); in the assay with SNB-19, 0.00224 µM (active); in the assay with TK-10, 0.00838 µM (active). Also, the GI50 in the assay on OVCAR-3 is 0.00577 µM (active); in the assay with Malme-3M, 0.00538 µM (active); in the assay with SK-OV-3 it was 0.00528 µM (active); in the assay with HCT-116, 0.00222 µM (active); in the assay with HOP-62 it was 0.0046 µM (active); in the assay on SNB-75, 0.00482 µM (active). In the assay on MDA-N, the GI50 was 0.00467 µM (active).
As to `CC(C)(C)SC1=CCC[C@@H](P(=O)(c2ccccc2)c2ccccc2)[C@@H]2CCC[C@@H]12`, the GI50 in the assay on KM12 is 16.3 µM (inactive); in the assay with RXF 393 it was 13.8 µM (inactive); in the assay on DU-145, 17.2 µM (inactive); in the assay on NCI-H23, 17.2 µM (inactive); in the assay with A498, 15.8 µM (inactive); with NCI-H460 it was 15.7 µM (inactive). Moreover, the GI50 was 17.8 µM (inactive) with BT-549; 14 µM (inactive) in the assay on T47D; 20.7 µM (inactive) in the assay with Hs-578T; 17.5 µM (inactive) in the assay on U-251; 16.1 µM (inactive) in the assay on SNB-19; 17.5 µM (inactive) with TK-10. The GI50 is 17 µM (inactive) in the assay on OVCAR-3; 19.6 µM (inactive) with Malme-3M; 15.9 µM (inactive) with SK-OV-3; 14.3 µM (inactive) with HCT-116; 17 µM (inactive) with HOP-62; 11.8 µM (inactive) with SNB-75. The GI50 in the assay with MDA-N is 16.1 µM (inactive).
